Assays:
isolated saphena vein = test: action on the unstriated fibers of the isolated saphena vein, in vitro; design: species or system dogs; conditions: for Action on isolated veins: at 2 × 10^-6 g/ml
Excerpt: (§1) research of an action on the unstriated fibers of the isolated saphena vein in dogs, and of the isolated ear artery of rabbits, in vitro.

isolated ear artery = test: action on the unstriated fibers of the isolated ear artery, in vitro; design: species or system rabbits; conditions: for Action on isolated arteries: at 2 × 10^-6 g/ml
Excerpt: as §1

[1] = test system: reserpine-induced palpebral ptosis; test: antagonism of reserpine-induced palpebral ptosis, in rats; format: in vivo; conditions: Rattus norvegicus, po, as hydrochloride
Protocol: antagonism of reserpine-induced palpebral ptosis, in rats; The test materials were administered as the hydrochlorides, either intraperitoneally (or intravenously, in the course of cardiovascular tests), or orally.

acute toxicity, in mice = format: in vivo; conditions: for LD50: mouse, in vivo, mice
Protocol: (§2) The test materials were administered as the hydrochlorides, either intraperitoneally (or intravenously, in the course of cardiovascular tests), or orally.
Acute toxicity, in mice, is low, both intraperitoneally and orally.

[2] = test system: blood pressure, femoral rate of flow; test: cardiovascular action: blood pressure and femoral rate of flow, in dogs; format: in vivo; conditions: i.v.
Protocol: determination of the blood pressure, of the femoral rate of flow and of the heart rate, and research for an antagonism or a potentiation of the catecholamines (epinephrine norepinephrine) on said parameters, in dogs; The test materials were administered as the hydrochlorides, either intraperitoneally (or intravenously, in the course of cardiovascular tests), or orally.

[3] = test system: edema of the paw on subcutaneous carrageenin injection; test: inhibition of edema of the paw on subcutaneous carrageenin injection, in rats; format: in vivo; conditions: Rattus norvegicus, po, read-out: Anti-inflammatory action ED50 p.o.
Protocol: inhibition of edema of the paw on subcutaneous carrageenin injection, in rats; The test materials were administered as the hydrochlorides, either intraperitoneally (or intravenously, in the course of cardiovascular tests), or orally.

[4] = test system: pain contractions subsequent to intraperitoneal injection of 0.75% acetic acid; test: Koster test: antagonism to pain contractions after intraperitoneal acetic acid, in mice; format: in vivo; conditions: Mus musculus, po, read-out: Analgesic action, Koster test ED50 p.o.
Protocol: antagonism to the pain contractions subsequent to intraperitoneal injection of 0.75% acetic acid, in mice (Koster test) The test materials were administered as the hydrochlorides, either intraperitoneally (or intravenously, in the course of cardiovascular tests), or orally.

[5] = test system: d-amphetamine-induced stereotypes; test: potentiation of d-amphetamine-induced stereotypes, in rats; format: in vivo; conditions: at 3 mg/kg, p.o.
Protocol: potentiation of d-amphetamine-induced stereotypes, in rats;
as §2

food intake = test: anorexiant effect (decreased food intake, in rats); format: in vivo; conditions: at 3 mg/kg, p.o.
Protocol: as §2
a central stimulant effect (increase of spontaneous motility, of amphetamine-induced stereotypes; of the antagonism of reserpine), sometimes accompanied by an anorexiant effect (decreased food intake, in rats);

[6] = test system: pain, in mice placed on a heating plate; test: Eddy test: inhibition of pain, in mice placed on a heating plate; format: in vivo; conditions: Mus musculus, po, read-out: Analgesic action, Eddy test ED50 p.o.
Protocol: inhibition of pain, in mice placed on a heating plate (Eddy test) The test materials were administered as the hydrochlorides, either intraperitoneally (or intravenously, in the course of cardiovascular tests), or orally.

[7] = test system: spontaneous motor activity; test: spontaneous motor activity, in mice; format: in vivo; conditions: at 3 mg/kg, p.o.
Protocol: determination of the spontaneous motor activity, in mice; The test materials were administered as the hydrochlorides, either intraperitoneally (or intravenously, in the course of cardiovascular tests), or orally.

[8] = test system: gastric ulcers due to stress; test: inhibition of gastric ulcers due to stress, in rats; format: in vivo
hypoxic asphyxia = test: cerebral protecting effect against hypoxic asphyxia under a reduced oxygen pressure; format: in vivo

Cc1nc2c(s1)CC(N)CC2.Cl (centres unmarked) [Example 1, 2-Methyl-6-amino-4,5,6,7-tetrahydro-benzo[d]thiazole hydrochloride]
Action on isolated veins (isolated saphena vein): Contraction | Action on isolated arteries (isolated ear artery): Contraction | inhibition at 10 mg/kg [1]: 40% | LD50 (acute toxicity, in mice; ip): < 100 mg/kg | LD50 (acute toxicity, in mice; po): > 200 mg/kg | Cardiovascular action: blood pressure ([2]; 0.5 mg/kg): Hypotension | Cardiovascular action: blood pressure ([2]; 1-5 mg/kg): Hypertension | ED50 [3]: 30 mg/kg

CNC1CCc2nc(C)sc2C1 (centres unmarked) [Example 2, 2-Methyl-6-methylamino-4,5,6,7-benzo[d]thiazole]
Action on isolated veins (isolated saphena vein): Contraction | ED50 [4]: 30 mg/kg | Action on isolated arteries (isolated ear artery): Contraction | LD50 (acute toxicity, in mice; ip): ≥ 100 mg/kg | LD50 (acute toxicity, in mice; po): > 200 mg/kg | Cardiovascular action: blood pressure ([2]; 0.5 mg/kg): Hypotension | Cardiovascular action: blood pressure ([2]; 1 mg/kg): Hypertension | ED50 [3]: ≤ 10 mg/kg | Action on amphetamine-induced stereotypes [5]: Increase | Anorexiant action (food intake): anorexiant action | ED50 [6]: 3 mg/kg

CNC1CCc2ncsc2C1.Cl (centres unmarked) [Example 3, 6-Methylamino-4,5,6,7-tetrahydro-benzo[d]thiazole hydrochloride]
Action on spontaneous motility [7]: Increase | Action on the isolated vein (isolated saphena vein; concentration not given): Contraction | ED50 [4]: 5 mg/kg | inhibiting effect on the development of gastric ulcers due to stress [8]: potent inhibiting effect | cerebral protecting effect against hypoxic asphyxia (hypoxic asphyxia): marked cerebral protecting effect | Action on the isolated artery (isolated ear artery; concentration not given): 0 | toxicity at the active dosages (acute toxicity, in mice; at the active dosages): does not exhibit noteworthy toxicity | LD50 (acute toxicity, in mice; ip): > 200 mg/kg | LD50 (acute toxicity, in mice; po): > 200 mg/kg | Cardiovascular action: blood pressure ([2]; 1-5 mg/kg): Hypertension | Cardiovascular action: femoral rate of flow ([2]; 1-5 mg/kg): substantial increase | ED50 [3]: < 30 mg/kg | Action on amphetamine-induced stereotypes [5]: Increase | Anorexiant action (food intake): Anorexiant action | ED50 [6]: ≤ 3 mg/kg

CNC1CCCc2scnc21 (centres unmarked) [Example 4, 4-Methylamino-4,5,6,7-tetrahydro-benzo[d]thiazole]
LD50 (acute toxicity, in mice; ip): > 200 mg/kg | LD50 (acute toxicity, in mice; po): > 200 mg/kg

NC1CCc2scnc2C1 (centres unmarked) [Example 7, 5-Amino-4,5,6,7-tetrahydro-benzo[d]thiazole]
LD50 (acute toxicity, in mice; ip): > 200 mg/kg | LD50 (acute toxicity, in mice; po): > 200 mg/kg
